According to patent US4522815A, “Anthracycline glycosides” (priority 1982, dated 1985):
Converted amounts (≈) assume the structure as drawn. Like-named read-outs stand apart in the source and are kept apart here.

Legend:
ascitic P388 leukemia = experiment: Antitumor activity against ascitic P388 leukemia in CDF-1 mice, treatment i.p. on day 1; assay type: in vivo
Protocol: The primary screening […] was carried out in CDF-1 mice bearing ascitic P388 leukemia (10^6 cells/mouse). Both IIa and IIc were suspended in 10%. Tween 80 and injected intraperitoneally.
Results of the primary screening "in vivo" carried out in CDF-1 mice bearing P388 ascitic leukemia and treated i.p. the day after tumor transplantation, are reported in Table 5.
Antitumor activity against ascitic P388 leukekemia.
(§1) Treatment i.p. on day 1.
^a median survival time; % over untreated controls
^b long term survivors (≥ 60 days)
^c evaluated on the basis of autoptic findings on dead mice
(§2) ^d data of two experiments (range)
^e date of three experiments (range)
Antitumor activity of Ib and Id against ascitic P388
as §1

HeLa cells = experiment: Colony inhibition test against HeLa cells in vitro (cloning efficiency), treatment for 24 hrs; assay type: cell-based; conditions: for activity at 0.0015 µg/mL: 1.5 ng/ml; for activity at 0.0062 µg/mL: 6.2 ng/ml; for activity at 0.025 µg/mL: 25 ng/ml; for activity at 0.1 µg/mL: 100 ng/ml; for IC50: HeLa colony inhibition, read-out: ID50 (the source's name)
Gross leukemia [1] = experiment: Oral activity against i.v. transplanted Gross leukemia (i.v. comparators); assay type: in vivo, C3H/Me mice; conditions: for T/C %, median survival time / Toxic deaths: Table 7
Description: (§3) Results of studies performed in C3H/Me mice carrying i.v. transplanted Gross leukemia and treated i.v. the day after tumor transplantation, are reported in Table 6. […] The compounds Ib and Id were further investigated for oral activity on Gross leukemic transplanted i.v., in comparison with DNR, DX given i.v. and 4-dm DNR given oral route.
Oral activity of Ib and Id against Gross leukemia
^a days after transplantation
as §2

Gross leukemia [2] = experiment: Antitumor activity against i.v. transplanted Gross leukemia in C3H/Me mice, treatment i.v. on day 1; assay type: in vivo; conditions: for T/C, median survival time; % over untreated controls / Toxic deaths: Table 6
Description: as §3
Antitumor activity against i.v. Gross leukemia.
Treatment i.v. on day 1.

[3] = Table 2, 30 mg/kg i.p. day 1, two experiments
[4] = Homo sapiens, HeLa, Table 1, 24 hrs, read-out: No of colonies, % of untreated controls
[5] = Homo sapiens, HeLa, Table 3, 24 hrs, read-out: No of colonies, % of untreated controls

SMILES: COc1cccc2c1C(=O)c1c(O)c3c(c(O)c1C2=O)C[C@@](O)(C(=O)CO)C[C@@H]3O[C@H]1C=C[C@@H](O)[C@H](C)O1 [Compound IIc, 7-0-(2,3,6-trideoxy-α-L-erythro-hex-2-enopyranosyl)-adriamycinone]
- LTS, long term survivors (≥ 60 days) (ascitic P388 leukemia; Table 2, 17.6 mg/kg i.p. day 1): 0/8
- T/C, median survival time; % over untreated controls (ascitic P388 leukemia; Table 2, 17.6 mg/kg i.p. day 1): 118%
- Toxic deaths (autoptic findings on dead mice) (ascitic P388 leukemia; Table 2, 17.6 mg/kg i.p. day 1): 0/8
- LTS, long term survivors (≥ 60 days) (ascitic P388 leukemia; Table 2, 23 mg/kg i.p. day 1): 0/7
- T/C, median survival time; % over untreated controls (ascitic P388 leukemia; Table 2, 23 mg/kg i.p. day 1): 127%
- Toxic deaths (autoptic findings on dead mice) (ascitic P388 leukemia; Table 2, 23 mg/kg i.p. day 1): 0/7
- LTS, long term survivors (≥ 60 days) (ascitic P388 leukemia; [3]): 0/17
- Toxic deaths (autoptic findings on dead mice) (ascitic P388 leukemia; [3]): 0/17
- T/C, median survival time; % over untreated controls (ascitic P388 leukemia; Table 2, 30 mg/kg i.p. day 1, two experiments (range)): 125-136%
- LTS, long term survivors (≥ 60 days) (ascitic P388 leukemia; Table 2, 45 mg/kg i.p. day 1): 0/10
- T/C, median survival time; % over untreated controls (ascitic P388 leukemia; Table 2, 45 mg/kg i.p. day 1): 130%
- Toxic deaths (autoptic findings on dead mice) (ascitic P388 leukemia; Table 2, 45 mg/kg i.p. day 1): 0/10
- LTS, long term survivors (≥ 60 days) (ascitic P388 leukemia; Table 2, 67.5 mg/kg i.p. day 1): 0/10
- T/C, median survival time; % over untreated controls (ascitic P388 leukemia; Table 2, 67.5 mg/kg i.p. day 1): 140%
- Toxic deaths (autoptic findings on dead mice) (ascitic P388 leukemia; Table 2, 67.5 mg/kg i.p. day 1): 0/10
- LTS, long term survivors (≥ 60 days) (ascitic P388 leukemia; Table 2, 100 mg/kg i.p. day 1): 0/7
- T/C, median survival time; % over untreated controls (ascitic P388 leukemia; Table 2, 100 mg/kg i.p. day 1): 150%
- Toxic deaths (autoptic findings on dead mice) (ascitic P388 leukemia; Table 2, 100 mg/kg i.p. day 1): 0/7
- toxicity and potency vs parent drugs DNR and DX (ascitic P388 leukemia; ascitic P388, i.p.): less toxic and potent than the parent drugs DNR and DX
- antitumor activity on P388 ascitic leukemia (ascitic P388 leukemia; i.p. day 1, IIa: two doses tested incl. Mx TD): a certain antitumor activity, which is lower than that of DX
- times less cytotoxic than DX (HeLa cells; HeLa cells cloning efficiency, vs DX): about 5 times
- activity at 0.0015 µg/mL (HeLa cells; [4]): 86%
- activity at 0.0062 µg/mL (HeLa cells; [4]): 68%
- activity at 0.025 µg/mL (HeLa cells; [4]): 65%
- activity at 0.1 µg/mL (HeLa cells; [4]): 33%
- activity at 0.4 µg/mL (HeLa cells; Homo sapiens, HeLa, Table 1, 400 ng/ml, 24 hrs, read-out: No of colonies, % of untreated controls): 4%
- IC50 (HeLa cells; Homo sapiens, Table 1, 24 hrs): ~0.05 µg/mL (≈ 0.095 µM)

SMILES: C[C@@H]1O[C@@H](O[C@H]2C[C@](O)(C(=O)CO)Cc3c(O)c4c(c(O)c32)C(=O)c2ccccc2C4=O)C[C@H](O)[C@H]1O [Compound Id, 4-demethoxy-7-0-(2,6-dideoxy-α-L-arabino-hexopyranosyl)-adriamycinone]
- LTS, long term survivors (≥ 60 days) (ascitic P388 leukemia; Table 5, 1.12 mg/kg i.p. day 1): 0/10
- T/C, median survival time; % over untreated controls (ascitic P388 leukemia; Table 5, 1.12 mg/kg i.p. day 1): 170%
- Toxic deaths (autoptic findings on dead mice) (ascitic P388 leukemia; Table 5, 1.12 mg/kg i.p. day 1): 0/10
- LTS, long term survivors (≥ 60 days) (ascitic P388 leukemia; Table 5, 1.68 mg/kg i.p. day 1): 0/10
- T/C, median survival time; % over untreated controls (ascitic P388 leukemia; Table 5, 1.68 mg/kg i.p. day 1): 185%
- Toxic deaths (autoptic findings on dead mice) (ascitic P388 leukemia; Table 5, 1.68 mg/kg i.p. day 1): 0/10
- LTS, long term survivors (≥ 60 days) (ascitic P388 leukemia; Table 5, 2.53 mg/kg i.p. day 1): 1/10
- T/C, median survival time; % over untreated controls (ascitic P388 leukemia; Table 5, 2.53 mg/kg i.p. day 1): 230%
- Toxic deaths (autoptic findings on dead mice) (ascitic P388 leukemia; Table 5, 2.53 mg/kg i.p. day 1): 2/10
- times more potent than DX (ascitic P388 leukemia; ascitic P388, i.p. day 1): about 5 times
- antileukemia activity against P388 leukemia (ascitic P388 leukemia; vs DX): good but lower than that of DX
- T/C %, median survival time (Gross leukemia [1]; oral +1, 1.2 mg/kg): 171%
- Toxic deaths (Gross leukemia [1]; oral +1, 1.2 mg/kg): 0/9
- T/C %, median survival time (Gross leukemia [1]; oral +1, 2.1 mg/kg): 185%
- Toxic deaths (Gross leukemia [1]; oral +1, 2.1 mg/kg): 0/8
- T/C %, median survival time (Gross leukemia [1]; oral +1, 3.8 mg/kg): 214%
- Toxic deaths (Gross leukemia [1]; oral +1, 3.8 mg/kg): 3/8
- T/C %, median survival time (Gross leukemia [1]; oral days 1,2,3, 0.48 mg/kg): 183%
- Toxic deaths (Gross leukemia [1]; oral days 1,2,3, 0.48 mg/kg): 0/10
- T/C %, median survival time (Gross leukemia [1]; oral days 1,2,3, 0.62 mg/kg): 208%
- Toxic deaths (Gross leukemia [1]; oral days 1,2,3, 0.62 mg/kg): 0/10
- Toxic deaths (Gross leukemia [1]; oral days 1,2,3, 0.8 mg/kg, two experiments): 2/20
- T/C %, median survival time (Gross leukemia [1]; oral days 1,2,3, 0.8 mg/kg, two experiments (range)): 233-258%
- antitumor activity given orally at day 1 (Gross leukemia [1]; oral day 1, Gross leukemia, Id at the Mx TD vs DX i.v.): less active than DX i.v.
- antitumor activity given orally days 1,2,3 (Gross leukemia [1]; oral days 1,2,3, vs DX i.v.): higher than that of DX given i.v.
- antitumor activity, comparison of the Mx TD (Gross leukemia [2]; Gross leukemia, i.v. day 1): good antitumor activity, which is of the same order of magnitude as that of DX
- toxicity and potency vs parent compounds (Gross leukemia [2]; Gross leukemia, i.v. day 1): more toxic and more potent than the parent compounds
- T/C, median survival time; % over untreated controls (Gross leukemia [2]; 1.2 mg/kg i.v. day 1): 171%
- Toxic deaths (Gross leukemia [2]; 1.2 mg/kg i.v. day 1): 1/10
- T/C, median survival time; % over untreated controls (Gross leukemia [2]; 2.16 mg/kg i.v. day 1): 200%
- Toxic deaths (Gross leukemia [2]; 2.16 mg/kg i.v. day 1): 1/10
- T/C, median survival time; % over untreated controls (Gross leukemia [2]; 3.8 mg/kg i.v. day 1): 114%
- Toxic deaths (Gross leukemia [2]; 3.8 mg/kg i.v. day 1): 5/9
- cytotoxicity in comparison with DX (HeLa cells; HeLa cells cloning efficiency): as cytotoxic as DX
- activity at 0.0015 µg/mL (HeLa cells; [5]): 106%
- activity at 0.0062 µg/mL (HeLa cells; [5]): 59%
- activity at 0.025 µg/mL (HeLa cells; [5]): 0%
- activity at 0.1 µg/mL (HeLa cells; [5]): 0%
- IC50 (HeLa cells; Homo sapiens, Table 3, 24 hrs): ~0.007 µg/mL (≈ 0.0136 µM)
